# Laboratory results as given in patent US4062731A, “Production of uricase from micrococcus luteus” (Eastman Kodak Company, priority 1976, dated 1977).
# Molecular target: uricase from Micrococcus luteus NRRL B-8166
# Assay: Spectrophotometric uricase assay (disappearance of uric acid at 290 nm)
# Type: biochemical
# Details: assay in 50 mM KPi buffer pH 8.6, 30° C; read-out: inhibition constant for oxonate
# Description: Uricase was assayed spectrophotometrically by following the disappearance of uric acid at 290 nm using a modification of the procedure described by Mahler et. al, J. Biol. Chem., p. 625, 216 (1955). Assay tubes contained 2.7 ml 50 mM KPi buffer pH 8.6, 0.1 mM sodium EDTA, 0.05 ml 6 mM urate, plus enzyme and water to give a final volume of 3.0 ml. Changes or additions to the assay mixtures were made when necessary. Tubes were incubated for 5 minutes at 30° C; the reaction was started by adding enzyme. Molar extinction coefficient for uric acid at 290 nm is 12,300. Activity was expressed in units of uricase activity, where a unit is that amount of enzyme which catalyzes the oxidation of one μmole of uric acid per minute at 30° C and pH 8.6.
compound,measurement,value
O=C(O)c1nc(=O)[nH]c(=O)[nH]1 [oxonate],Ki,4.5 µM
